From US10947188B2, “Small molecule ferroptosis inducers” (THE TRUSTEES OF COLUMBIA UNIVERSITY IN THE CITY OF NEW YORK, priority 2016, dated 2021)

Test system: HT-1080
Assay: Modulatory profiling: Alamar Blue viability, lethal compound cotreated with death modulator (EC50, AUC); on AUC HT.BHA: reference of the scale not given here; on AUC HT.EGTA: reference of the scale not given here
Format: cell-based
Parameters: AUC, modulator HT.3MA / AUC, modulator HT.ALLN / AUC HT.ATA / AUC HT.ActD / AUC HT.BHA / AUC HT.BHT / AUC HT.BocD / AUC HT.CHX / AUC HT.Co2+ / AUC HT.DPQ / AUC HT.EGTA / AUC HT.Lmim / AUC HT.NAD+ / AUC HT.Nec-1 / AUC HT.SP600125 / AUC HT.TLCK / AUC HT.U0126: unit not given beside the values
Settings: for AUC HT.ATA: HT-1080, modulator ATA; for AUC HT.ActD: HT-1080, modulator ActD; for AUC HT.BHA: HT-1080, modulator BHA; for AUC HT.BHT: HT-1080, modulator BHT; for AUC HT.BocD: HT-1080, modulator BocD; for AUC HT.CHX: HT-1080, modulator CHX; for AUC HT.Co2+: HT-1080, modulator Co2+; for AUC HT.CspA: HT-1080, modulator CspA; for AUC HT.DPQ: HT-1080, modulator DPQ; for AUC HT.EGTA: HT-1080, modulator EGTA; for AUC HT.Gd3+: HT-1080, modulator Gd3+; for AUC HT.LNAME: HT-1080, modulator LNAME; for AUC HT.Lmim: HT-1080, modulator Lmim; for AUC HT.NAD+: HT-1080, modulator NAD+; for AUC HT.NMMA: HT-1080, modulator NMMA; for AUC HT.Nec-1: HT-1080, modulator Nec-1; for AUC HT.Pepstatin: HT-1080, modulator Pepstatin; for AUC HT.SP600125: HT-1080, modulator SP600125; for AUC HT.TLCK: HT-1080, modulator TLCK; for AUC HT.U0126: HT-1080, modulator U0126; for HT.atoc (AUC) / HT.bCarotene (AUC) / HT.deferox (AUC) / HT.digoxin (AUC) / HT.trolox (AUC) / HT.zVAD (AUC): HT-1080; for HT.atoc (AUC): modulator atoc; for HT.bCarotene (AUC): modulator bCarotene; for HT.deferox (AUC): modulator deferox; for HT.digoxin (AUC): modulator digoxin; for HT.trolox (AUC): modulator trolox; for HT.zVAD (AUC): modulator zVAD; for AUC, modulator HT.3MA / AUC, modulator HT.ALLN: HT-1080 cells, modulatory profile value (AUC); for AUC, modulator HT.3MA: lethal compound cotreated with modulator 3MA; for AUC, modulator HT.ALLN: lethal compound cotreated with modulator ALLN

| Compound | AUC HT.ATA | AUC HT.ActD | AUC HT.BHA | AUC HT.BHT | AUC HT.BocD | AUC HT.CHX | AUC HT.Co2+ | AUC HT.CspA | AUC HT.DPQ | AUC HT.EGTA | AUC HT.Gd3+ | AUC HT.LNAME | AUC HT.Lmim | AUC HT.NAD+ | AUC HT.NMMA | AUC HT.Nec-1 | AUC HT.Pepstatin | AUC HT.SP600125 | AUC HT.TLCK | AUC HT.U0126 | also measured |
| --- | --- | --- | --- | --- | --- | --- | --- | --- | --- | --- | --- | --- | --- | --- | --- | --- | --- | --- | --- | --- | --- |
| COc1cc2c(c(OC)c1OC)-c1ccc(OC)c(=O)cc1[C@@H](NC(C)=O)CC2 [Colchicine] | 0.1325 | 0.01343 | 0.01506 | −0.006747 | 0.1264 | 0.04333 | 0.1098 | −0.1209 | 0.01511 | −0.000119 | 0.01351 | 0.008236 | 0.1199 | 0.1471 | 0.008585 | 0.01661 | 0.004413 | −0.02858 | 0.0306 | 0.2237 | HT.atoc (AUC): −0.0173; HT.bCarotene (AUC): 0.01723; HT.deferox (AUC): 0.2984; HT.digoxin (AUC): 0.1359; HT.trolox (AUC): 0.01591; HT.zVAD (AUC): 0.134; AUC, modulator HT.3MA: 0.01861; AUC, modulator HT.ALLN: 0.1932 |
| COc1ccc(N(C(=O)CCl)C(C(=O)NCCc2ccccc2)c2cccs2)cc1 (stereo not drawn) [DPI4] | −0.03622 | −0.006831 | 0.285 | 0.2486 | −0.01407 | −0.008699 | 0.1741 | 5.8801E−05 | 0.05528 | 0.0361 | −0.02121 | 0.01547 | 0.3086 | 0.02441 | −0.0007723 | 0.05135 | −0.003295 | −0.04284 | 0.1761 | 0.3423 | HT.atoc (AUC): 0.3523; HT.bCarotene (AUC): −0.01264; HT.deferox (AUC): 0.4095; HT.digoxin (AUC): −0.06343; HT.trolox (AUC): 0.3151; HT.zVAD (AUC): −0.04451; AUC, modulator HT.3MA: −0.001458; AUC, modulator HT.ALLN: −0.1648 |
| CS[C@H]1SC[C@H]2C(=O)N(C)[C@@H](C(C)C)C(=O)OC[C@@H](NC(=O)c3cnc4ccccc4n3)C(=O)N[C@@H](C)C(=O)N(C)[C@@H]1C(=O)N(C)[C@@H](C(C)C)C(=O)OC[C@@H](NC(=O)c1cnc3ccccc3n1)C(=O)N[C@@H](C)C(=O)N2C [Echinomycin] | 0.04087 | 0.06604 | 0.02424 | −0.04076 | 0.07385 | 0.1436 | 0.1492 | −0.08426 | 0.006918 | 0.006916 | 0.01526 | 0.01178 | 0.06784 | 0.178 | −0.0009733 | 0.02093 | 0.006861 | 0.08228 | 0.006436 | 0.01676 | HT.atoc (AUC): 0.1464; HT.bCarotene (AUC): −0.004968; HT.deferox (AUC): 0.1665; HT.digoxin (AUC): 0.09969; HT.trolox (AUC): −0.02423; HT.zVAD (AUC): 0.07367; AUC, modulator HT.3MA: 0.3083; AUC, modulator HT.ALLN: 0.084 |
